Values quoted from earlier work as cited in PMC9328939, “A Randomized Double‐Blind Placebo‐Controlled First‐In‐Human Phase 1 Trial of TransCon PTH in Healthy Adults” (Journal of Bone and Mineral Research, 2020).

Experiments:
[1] = system: healthy volunteers; details: sCa raised comparably to a calcium clamp (10.3 mg/dL; FECa 6.0% to 7.0%) by infusion of PTHrP(1-36); cited from earlier work
Source text: TransCon PTH may also positively impact hypercalciuria, a major cause of morbidity in patients with HP.

[2] = system: PTH/PTHrP receptor; details: stated without data; no reference given; cited from earlier work
[3] = short-acting PTH(1-84); cited from earlier work
Source text: The TransCon PTH bone turnover data are similar to the published literature, which illustrate that continuous PTH administration is not anabolic. […] TransCon PTH did modestly and transiently increase the bone resorption marker, serum CTx, consistent with t ...

PTHrP(1‐36): parathyroid hormone-related protein fragment infused in healthy volunteers in a literature study
FECa [1]: did not differ from normal controls

PTH(1‐33): metabolite of PTH(1-34) shortened by a single amino acid; part of Free PTH (SVSEIQLMHNLGKHLNSMERVEWLRKKLQDVHN; Parathyroid hormone; UniProt P01270 32-64, looked up, fragment)
potency at the PTH/PTHrP receptor relative to PTH(1-34) [2]: equipotency

B1: PTH(1‐84): parathyroid hormone for injection, once-daily short-acting rhPTH(1-84) (protein, UniProt P01270 32-115, looked up)
Parathyroid hormone: SVSEIQLMHNLGKHLNSMERVEWLRKKLQDVHNFVALGAPLAPRDAGSQRPRKKEDNVLVESHEKSLGEADKADVNVLTKAKSQ
modifications: Parathyroid hormone
persistent increase in CTx [3]: 200%
